Read-outs that look alike come from different tables or passages of the source.
Legend:
H-MEC-1 = assay: SRB colorimetric cell growth inhibition assay, H-MEC-1; assay type: cell-based; conditions: Homo sapiens, HMEC-1, H-MEC-1; for GI50: GI=growth inhibition, read-out: GI50 H-MEC-1; for IC (TGI): total growth inhibition (cytostatic effect), read-out: TGI H-MEC-1
How it was run: (§1)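 Growth inhibition (GI), total growth inhibition (TGI, cytostatic) and lethal concentration (LC, cytotoxic) come from an SRB-based colorimetric measure of growth and viability. Data are triplicate-well means ± SD.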

SKOV-3 [1] = assay: SRB colorimetric cell growth inhibition assay, SKOV-3; assay type: cell-based; conditions: Homo sapiens
How it was run: (§2)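 Growth and viability quantified by sulforhodamine B staining in 96-well microplates. Triplicate wells give mean ± SD; derived endpoints are GI, TGI (cytostatic) and LC (cytotoxic).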

[2] = SRB colorimetric cell growth inhibition assay, H-MEC-1; assay type: cell-based; conditions: human; H-MEC-1; LC=cell killing (cytotoxic effect); read-out: LC50 H-MEC-1
How it was run: as §2

SKOV-3 [3] = assay: SRB colorimetric cell growth inhibition assay, SKOV-3; assay type: cell-based; conditions: Homo sapiens; for GI50: SK-OV-3, SKOV-3, GI=growth inhibition, read-out: GI50 SKOV-3; for IC (TGI): total growth inhibition (cytostatic effect), read-out: TGI SKOV-3
How it was run: as §1

human topoisomerase I = biological target: T1, human topoisomerase I (Homo sapiens, UniProt P11387); assay: Topoisomerase I cleavage of radiolabeled 117-bp DNA fragment; assay type: biochemical; conditions: 117-bp DNA restriction fragment 3' end-labeled
T1 sequence (P11387 1-765): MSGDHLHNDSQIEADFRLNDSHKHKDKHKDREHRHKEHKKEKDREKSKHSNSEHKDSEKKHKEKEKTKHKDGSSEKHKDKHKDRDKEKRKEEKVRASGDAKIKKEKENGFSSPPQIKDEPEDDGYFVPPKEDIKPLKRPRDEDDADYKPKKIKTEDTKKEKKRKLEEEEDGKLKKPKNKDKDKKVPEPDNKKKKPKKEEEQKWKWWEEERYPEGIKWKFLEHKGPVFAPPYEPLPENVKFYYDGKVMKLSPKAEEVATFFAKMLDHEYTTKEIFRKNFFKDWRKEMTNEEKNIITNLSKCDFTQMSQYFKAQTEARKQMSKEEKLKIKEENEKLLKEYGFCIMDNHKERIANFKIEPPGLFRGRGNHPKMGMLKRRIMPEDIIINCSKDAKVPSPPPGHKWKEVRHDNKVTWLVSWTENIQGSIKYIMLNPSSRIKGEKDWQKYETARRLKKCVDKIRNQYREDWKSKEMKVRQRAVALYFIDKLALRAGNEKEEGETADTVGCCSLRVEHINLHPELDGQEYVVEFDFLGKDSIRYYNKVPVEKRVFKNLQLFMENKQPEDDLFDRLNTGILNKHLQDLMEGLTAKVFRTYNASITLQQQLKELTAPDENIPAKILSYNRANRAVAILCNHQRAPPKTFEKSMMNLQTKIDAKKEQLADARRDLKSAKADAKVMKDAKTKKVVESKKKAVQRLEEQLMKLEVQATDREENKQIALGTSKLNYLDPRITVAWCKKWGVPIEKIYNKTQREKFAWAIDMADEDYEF
Description: Two assays, based on DNA relaxation and DNA cleavage (Bailly, C. DNA relaxation and cleavage assays to study topoisomerase I inhibitors. Methods Enzymol. 2001, 340, 610-623) were used evaluate the effects of the lamellarin analogs on the catalytic activity of human topoisomerase I.
A second assay, based on the cleavage of a radiolabeled DNA substrate by topoisomerase I, was used to confirm that the cationic lamellarin derivatives do effectively function as topoisomerase I poisons. A 117-bp DNA restriction fragment uniquely end-labeled at the 3′ end was subjected to cleavage by topoisomerase I in the presence of the different compounds and the resulting DNA cleavage products were resolved on sequencing-type polyacrylamide gels. The advantage of this assay is to detect the cleavage sites and to locate their positions with nucleotide resolution, providing thus information on the site selectivity of cleavage.

HeLa-APL = assay: SRB colorimetric cell growth inhibition assay, HeLa-APL (aplidine resistant); assay type: cell-based; conditions: Homo sapiens, HELA-APL; for GI50: GI=growth inhibition, read-out: GI50 HELA-APL; for CC50: cell killing (cytotoxic effect), read-out: LC50 HELA-APL; for IC (TGI): total growth inhibition (cytostatic effect), read-out: TGI HELA-APL
How it was run: (§3)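 Triplicate-well SRB colorimetry following continuous sample exposure of human tumour cells; reported parameters are GI, TGI for cytostatic effect, and LC for cytotoxic effect.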

HeLa = assay: SRB colorimetric cell growth inhibition assay, HeLa; assay type: cell-based; conditions: Homo sapiens, HeLa; for GI50: GI=growth inhibition, read-out: GI50 HELA; for CC50: cell killing (cytotoxic effect), read-out: LC50 HELA; for IC (TGI): total growth inhibition (cytostatic effect), read-out: TGI HELA
How it was run: as §3

[4] = SRB colorimetric cell growth inhibition assay, H-MEC-1; assay type: cell-based; conditions: human
How it was run: as §1

SMILES | GI50 (H-MEC-1) [nM] | IC (TGI) (H-MEC-1) [nM] | GI50 (SKOV-3 [3]) [nM] | IC (TGI) (SKOV-3 [3]; SK-OV-3, SKOV-3) [nM] | GI50 (HeLa-APL) [nM] | CC50 (HeLa-APL) [nM] | IC (TGI) (HeLa-APL) [nM] | GI50 (HeLa) [nM] | CC50 (HeLa) [nM] | IC (TGI) (HeLa) [nM] | further results
COc1cc(-c2c3c4cc(OC)c(OC(=O)[C@@H](NC(=O)OC(C)(C)C)C(C)C)cc4oc(=O)c3n3ccc4cc(OC(=O)[C@@H](NC(=O)OC(C)(C)C)C(C)C)c(OC)cc4c23)ccc1OC(=O)[C@@H](NC(=O)OC(C)(C)C)C(C)C [Compound 38] | 80.9 | 911 | 684 | 7420 |  |  |  |  |  |  | CC50 (SKOV-3 [1]; SK-OV-3, read-out: LC50 SKOV-3): 9110 nM; CC50 [2]: 9110 nM
COc1cc(-c2c3c4cc(OC)c(OC(=O)[C@H](N)C(C)C)cc4oc(=O)c3n3ccc4cc(OC(=O)[C@H](N)C(C)C)c(OC)cc4c23)ccc1OC(=O)[C@H](N)C(C)C [Compound 17] |  |  |  |  | 119 | 1850 | 353 | 109 | 878 | 359 | stimulation of DNA cleavage by topoisomerase I (radiolabeled DNA substrate) (human topoisomerase I): no difference between the (L) (36) and (D) (17) Val isomers
COc1cc(-c2c3c4cc(OC)c(OC(=O)[C@H](C)N)cc4oc(=O)c3n3ccc4cc(OC(=O)[C@H](C)N)c(OC)cc4c23)ccc1OC(=O)[C@H](C)N [Compound 40] |  |  |  |  |  |  |  |  |  |  | GI50 (SKOV-3 [1]; SK-OV-3, SKOV-3, GI=growth inhibition, read-out: GI50 SKOV-3): 28.4 nM; CC50 (SKOV-3 [1]; SK-OV-3, SKOV-3, LC=cell killing (cytotoxic effect), read-out: LC50 SKOV-3): 9480 nM; IC (TGI) (SKOV-3 [1]; SK-OV-3, SKOV-3, TGI=total growth inhibition (cytostatic effect), read-out: TGI SKOV-3): 107 nM
COc1cc(-c2c3n(c4c(=O)oc5cc(OC(=O)[C@H](NC(=O)OC(C)(C)C)C(C)C)c(OC)cc5c24)CCc2cc(OC(=O)[C@H](NC(=O)OC(C)(C)C)C(C)C)c(OC)cc2-3)ccc1OC(=O)[C@H](NC(=O)OC(C)(C)C)C(C)C [Compound 34] | 244 | 653 | 1270 | 2910 |  |  |  |  |  |  | LC50 (concentration giving 50% net cell killing) ([4]; H-MEC-1, cell killing (cytotoxic effect), read-out: LC50 H-MEC-1): 3440 nM; LC50 (concentration causing 50% net cell killing) (SKOV-3 [3]; SK-OV-3, SKOV-3, cell killing (cytotoxic effect), read-out: LC50 SKOV-3): 6650 nM
COc1cc(-c2c3c4cc(OC)c(OC(=O)CCCCCN)cc4oc(=O)c3n3ccc4cc(OC(=O)CCCCCN)c(OC)cc4c23)ccc1OC(=O)CCCCCN [Compound 169] |  |  |  |  | 70.5 | 2970 | 530 | 55.7 | 4420 | 1390 | stimulation of DNA cleavage by topoisomerase I (radiolabeled DNA substrate) (human topoisomerase I): stimulate DNA cleavage by the enzyme
COc1cc(-c2c3n(c4c(=O)oc5cc(OC(=O)[C@H](N)C(C)C)c(OC)cc5c24)CCc2cc(OC(=O)[C@H](N)C(C)C)c(OC)cc2-3)ccc1OC(=O)[C@H](N)C(C)C [Compound 32] | 276 | 723 | 1860 | 3670 |  |  |  |  |  |  | LC50 (concentration giving 50% net cell killing) [4]: 5370 nM; LC50 (concentration causing 50% net cell killing) (SKOV-3 [3]; SK-OV-3, read-out: LC50 SKOV-3): 7270 nM
COc1cc(-c2c3n(c4c(=O)oc5cc(OC(=O)CCc6ccccc6)c(OC)cc5c24)CCc2cc(OC(=O)CCc4ccccc4)c(OC)cc2-3)ccc1OC(=O)CCc1ccccc1 [Compound 11] |  |  |  |  | 5230 | 11100 | 11100 | 208 | 11100 | 1350 | 

Source: patent publication US7396837B2, “Antitumoral analogs of lamellarins” (Pharma Mar, S.A.U., priority 2002, dated 2008)
